Bounds are passed on as bounds.

This test relates to rabbit normal intraocular pressure. Put plainly: Intraocular pressure reducing action. The format is in vivo, Japanese white rabbit. As to conditions: Oryctolagus cuniculus, topical; 3 mM aqueous solution, 50 μl to the left eye; max IOP reduction (2, 4, 6 hours) / value immediately before administration; read-out: intraocular pressure reducing degree. On the procedure:
A Japanese white rabbit having a body weight of about 2 kg was placed in a positioner and naturalized for one week before the experiment. An opthalmologic local anesthesant (Benoxil) was administered to both eyes, and then intraocular pressure was measured by using a tonometer (Classic 30, Solan). A 3 mM aqueous solution of a test compound was administered in a volume of 50 μl to the left eye, and the right eye was not treated (control eye). The intraocular pressure values were measured for the left and right eyes immediately before, and 2, 4 and 6 hours after the administration of the aqueous solution of the test compound, and the difference of the measured values for the left and right eyes was considered an intraocular pressure reduction value of the test medicament at each measurement time. The largest difference of the values for the left and right eyes among the measured values at the measurement times (after 2, 4 and 6 hours) was considered the maximum intraocular pressure reduction value (max ? IOP) of each test medicament. The intraocular pressure reducing degree representing the intraocular pressure reducing action of each test medicament was calculated according to the following formula. Since rabbits show significant daily variation of intraocular pressure, daily variation is added when change of intraocular pressure is measured over time, and the intraocular pressure reducing action may be overestimated. Therefore, we used this calculation method of intraocular pressure reduction value in order to minimize the influence of the variation. Intraocular pressure reducing degree(%)=(max ? IOP/Intraocular pressure value immediately before administration)×100
In the case of `CC(=O)NCCC(=O)NC1CCN(S(=O)(=O)c2cccc3cncc(Cl)c23)C1` (stereo in doubt) [Example 97, (R)-3-[(3-Acetylamino)propionyl]amino-1-(4-chloro-5-isoquinolinesulfonyl)pyrrolidine], the inhibition in vivo at 3000 µM was 10 to 20%. Regarding `N#Cc1cncc2cccc(S(=O)(=O)N3CC[C@H](N)C3)c12` [Example 13-1, (S)-3-Amino-1-(4-cyano-5-isoquinolinesulfonyl)pyrrolidine], the inhibition in vivo at 3000 µM lay in the range of 5 to 10%.

With `N[C@H]1CCN(S(=O)(=O)c2cccc3cncc(-c4cnoc4)c23)C1` [Example 24-1, (S)-3-Amino-1-[4-(4-isoxazolyl)-5-isoquinolinesulfonyl]pyrrolidine], the inhibition in vivo at 3000 µM is 5 to 10%. The value for `CC(=O)N[C@H]1CCN(S(=O)(=O)c2cccc3cncc(Cl)c23)C1` [Example 49-1, (S)-3-(Acetylamino)-1-(4-chloro-5-isoquinolinesulfonyl)pyrrolidine] was 10 to 20%; that for `O=S(=O)(c1cccc2cncc(Cl)c12)N1CC[C@H](NC2CCOC2)C1` (stereo partly drawn) [Example 59-1, (3S)-3-(3-Tetrahydrofuranyl)amino-1-(4-chloro-5-isoquinolinesulfonyl)pyrrolidine] was 10 to 20%; that for `NCC1CCCCN1S(=O)(=O)c1cccc2cncc(Cl)c12` (stereo not shown) [Example 61, 2-(Aminomethyl)-1-(4-chloro-5-isoquinolinesulfonyl)piperidine] was 10 to 20%. As to `CN(C)CC(=O)N(C)[C@H]1CCN(S(=O)(=O)c2cccc3cncc(Cl)c23)C1` [Example 66-1, (S)-3-[N-(2-Dimethylamino)acetyl-N-methyl]amino-1-(4-chloro-5-isoquinolinesulfonyl)pyrrolidine], the inhibition in vivo at 3000 µM lay within 5 to 10%. For `COCC(=O)N(C)[C@H]1CCN(S(=O)(=O)c2cccc3cncc(Cl)c23)C1` [Example 67-1, (S)-3-[N-(2-Methoxyacetyl)-N-methyl]amino-1-(4-chloro-5-isoquinolinesulfonyl)pyrrolidine], the inhibition in vivo at 3000 µM fell in the range of 10 to 20%. In the case of `COCC(=O)N[C@H]1CCN(S(=O)(=O)c2cccc3c(O)ncc(Cl)c23)C1` [Example 68-1, (S)-3-(2-Methoxyacetyl)amino-1-(1-hydroxy-4-chloro-5-isoquinolinesulfonyl)pyrrolidine], the inhibition in vivo at 3000 µM fell in the range of 5 to 10%.

With `COCC(=O)N[C@H]1CCN(S(=O)(=O)c2cccc3cncc(C)c23)C1` [Example 70, (S)-3-(2-Methoxyacetyl)amino-1-(4-methyl-5-isoquinolinesulfonyl)pyrrolidine], the inhibition in vivo at 3000 µM is no less than 20%. On to `Cc1cncc2cccc(S(=O)(=O)N3CC[C@H](NC(=O)CN(C)C)C3)c12` [Example 72, (S)-3-[2-(Dimethylamino)acetyl]amino-1-(4-methyl-5-isoquinolinesulfonyl)pyrrolidine], for which the inhibition in vivo at 3000 µM lay in the range of 10 to 20%. The value for `CN(C)CC(=O)N[C@H]1CCN(S(=O)(=O)c2cccc3cncc(Br)c23)C1` [Example 73, (S)-3-[(2-Dimethylamino)acetyl]amino-1-(4-bromo-5-isoquinolinesulfonyl)pyrrolidine] was 10 to 20%.

With `O=C(CO)N[C@H]1CCN(S(=O)(=O)c2cccc3cncc(Cl)c23)C1` [Example 74, (S)-3-(2-Hydroxyacetyl)amino-1-(4-chloro-5-isoquinolinesulfonyl)pyrrolidine], the inhibition in vivo at 3000 µM lay in the range of 10 to 20%. Take `O=C(CCO)N[C@H]1CCN(S(=O)(=O)c2cccc3cncc(Cl)c23)C1` [Example 75, (S)-3-(3-Hydroxypropionyl)amino-1-(4-chloro-5-isoquinolinesulfonyl)pyrrolidine]: the inhibition in vivo at 3000 µM was in the range of 10 to 20%. `O=C(CCOc1ccccc1)N[C@H]1CCN(S(=O)(=O)c2cccc3cncc(Cl)c23)C1` [Example 76, (S)-3-(3-Phenoxypropionyl)amino-1-(4-chloro-5-isoquinolinesulfonyl)pyrrolidine]: the inhibition in vivo at 3000 µM lay in the range of 10 to 20%.

Take `COCCC(=O)N[C@H]1CCN(S(=O)(=O)c2cccc3cncc(Cl)c23)C1` [Example 77, (S)-3-(3-Methoxypropionyl)amino-1-(4-chloro-5-isoquinolinesulfonyl)pyrrolidine]: the inhibition in vivo at 3000 µM was no less than 20%. `CN(C)CCC(=O)N[C@H]1CCN(S(=O)(=O)c2cccc3cncc(Cl)c23)C1` [Example 78, (S)-3-[3-(Dimethylamino)propionyl]amino-1-(4-chloro-5-isoquinolinesulfonyl)pyrrolidine]: the inhibition in vivo at 3000 µM was 10 to 20%.

On to `CSCCC(=O)N[C@H]1CCN(S(=O)(=O)c2cccc3cncc(Cl)c23)C1` [Example 79, (S)-3-[3-(Methylthio)propionyl]amino-1-(4-chloro-5-isoquinolinesulfonyl)pyrrolidine], for which the inhibition in vivo at 3000 µM lay within 10 to 20%.

Turning to `O=C(CCn1ccnc1)N[C@H]1CCN(S(=O)(=O)c2cccc3cncc(Cl)c23)C1` [Example 81, (S)-3-[3-(1H-Imidazol-1-yl)propionyl]amino-1-(4-chloro-5-isoquinolinesulfonyl)pyrrolidine], the inhibition in vivo at 3000 µM was 10 to 20%. As to `O=C(CCn1cnnn1)N[C@H]1CCN(S(=O)(=O)c2cccc3cncc(Cl)c23)C1` [Example 82, (S)-3-[3-(1H-Tetrazol-1-yl)propionyl]amino-1-(4-chloro-5-isoquinolinesulfonyl)pyrrolidine], the inhibition in vivo at 3000 µM is 5 to 10%. As for `O=C(Cn1cncn1)N[C@H]1CCN(S(=O)(=O)c2cccc3cncc(Cl)c23)C1` [Example 84, (S)-3-[2-(1H-1,2,4-Triazol-1-yl)acetyl]amino-1-(4-chloro-5-isoquinolinesulfonyl)pyrrolidine], the inhibition in vivo at 3000 µM was 10 to 20%.

Take `O=C(Cn1ccnc1)N[C@H]1CCN(S(=O)(=O)c2cccc3cncc(Cl)c23)C1` [Example 86, (S)-3-[2-(1H-Imidazol-1-yl)acetyl]amino-1-(4-chloro-5-isoquinolinesulfonyl)pyrrolidine]: the inhibition in vivo at 3000 µM fell in the range of 10 to 20%. On to `O=C(CN1CCCC1=O)N[C@H]1CCN(S(=O)(=O)c2cccc3cncc(Cl)c23)C1` [Example 87, (S)-3-[2-(2-Oxopyrrolidin-1-yl)acetyl]amino-1-(4-chloro-5-isoquinolinesulfonyl)pyrrolidine], for which the inhibition in vivo at 3000 µM was in the range of 10 to 20%.

With `O=C(CN1CCOCC1)N[C@H]1CCN(S(=O)(=O)c2cccc3cncc(Cl)c23)C1` [Example 88, (S)-3-[2-(Morpholin-1-yl)acetyl]amino-1-(4-chloro-5-isoquinolinesulfonyl)pyrrolidine], the inhibition in vivo at 3000 µM is 10 to 20%. In the case of `CN1CCN(CC(=O)N[C@H]2CCN(S(=O)(=O)c3cccc4cncc(Cl)c34)C2)CC1` [Example 89, (S)-3-[2-(4-Methylpiperazin-1-yl)acetyl]amino-1-(4-chloro-5-isoquinolinesulfonyl)pyrrolidine], the inhibition in vivo at 3000 µM is 5 to 10%. As for `N#CCC(=O)N[C@H]1CCN(S(=O)(=O)c2cccc3cncc(Cl)c23)C1` [Example 90, (S)-3-(2-Cyanoacetyl)amino-1-(4-chloro-5-isoquinolinesulfonyl)pyrrolidine], the inhibition in vivo at 3000 µM lay within 10 to 20%.

Regarding `O=C(CN1CCNCC1)N[C@H]1CCN(S(=O)(=O)c2cccc3cncc(Cl)c23)C1` [Example 91, (S)-3-[2-(piperazin-1-yl)acetyl]amino-1-(4-chloro-5-isoquinolinesulfonyl)pyrrolidine], the inhibition in vivo at 3000 µM was in the range of 10 to 20%. Regarding `O=C(CN1CCN(CCO)CC1)N[C@H]1CCN(S(=O)(=O)c2cccc3cncc(Cl)c23)C1` [Example 92, (S)-3-[2-[4-(2-Hydroxyethyl)piperazin-1-yl]acetyl]amino-1-(4-chloro-5-isoquinolinesulfonyl)pyrrolidine], the inhibition in vivo at 3000 µM fell in the range of 10 to 20%.

As to `O=C(CN1CCOC1=O)N[C@H]1CCN(S(=O)(=O)c2cccc3cncc(Cl)c23)C1` [Example 93, (S)-3-[2-(2-Oxooxazolidin-3-yl)acetyl]amino-1-(4-chloro-5-isoquinolinesulfonyl)pyrrolidine], the inhibition in vivo at 3000 µM fell in the range of 10 to 20%. Consider `O=C(CNC(=O)c1ccccc1)N[C@H]1CCN(S(=O)(=O)c2cccc3cncc(Cl)c23)C1` [Example 94, (S)-3-[(2-Benzoylamino)acetyl]amino-1-(4-chloro-5-isoquinolinesulfonyl)pyrrolidine], for which the inhibition in vivo at 3000 µM lay within 10 to 20%. For `O=C(CNC(=O)c1cccnc1)N[C@H]1CCN(S(=O)(=O)c2cccc3cncc(Cl)c23)C1` [Example 95, (S)-3-[(2-Nicotinamino)acetyl]amino-1-(4-chloro-5-isoquinolinesulfonyl)pyrrolidine] the value was 10 to 20%; for `COCCOCC(=O)N[C@H]1CCN(S(=O)(=O)c2cccc3cncc(Cl)c23)C1` [Example 98, (S)-3-[2-(2-Methoxyethoxy)acetyl]amino-1-(4-chloro-5-isoquinolinesulfonyl)pyrrolidine], no less than 20%. For `COCCOCCOCC(=O)N[C@H]1CCN(S(=O)(=O)c2cccc3cncc(Cl)c23)C1` [Example 99, (S)-3-[2-[2-(2-Methoxyethoxy)ethoxy]acetyl]amino-1-(4-chloro-5-isoquinolinesulfonyl)pyrrolidine] the value was 10 to 20%; for `NC(C(=O)N[C@H]1CCN(S(=O)(=O)c2cccc3cncc(Cl)c23)C1)c1ccccc1` (stereo partly drawn) [Example 106, (S)-3-[(2-Amino-2-phenyl)acetyl]amino-1-(4-chloro-5-isoquinolinesulfonyl)pyrrolidine], no less than 20%.
